{"source": "patent US8063096B2", "about": "“Spirocyclic 3-phenyl-3substituted-4-ketolactams and-lactones” (Bayer Cropscience AG, priority 2001, dated 2011)", "format_in_all_cases": "in vivo", "key": {"[1]": {"system": "Spodoptera frugiperda", "assay": "Spodoptera frugiperda test", "settings": "500 ppm active compound, cabbage leaves dipped", "description": "(§1) [table] To produce a suitable preparation of active compound, 1 part by weight of active compound is mixed with the stated amounts of solvent and emulsifier, and the concentrate is diluted with emulsifier-containing water to the desired concentration. Cabbage leaves (Brassica oleracea) are treated by being dipped into the preparation of active compound of the desired concentration and are populated with caterpillars of the army worm (Spodoptera frugiperda) while leaves are still moist. After the desired period of time, the kill in % is determined. 100% means that all caterpillars have been killed; 0% means that none of the caterpillars have been killed."}, "[2]": {"system": "Alopecurus", "assay": "Pre-emergence test, Alopecurus", "settings": "pre-emergence/greenhouse; 250 g of ai/ha; after three weeks", "description": "(§2) [table] To produce a suitable preparation of active compound, 1 part by weight of active compound is mixed with the stated amount of solvent, the stated amount of emulsifier is added and the concentrate is diluted with water to the desired concentration. Seeds of the test plants are sown in normal soil. After about 24 hours, the soil is sprayed with the preparation of active compound such that the particular amounts of active compound desired are applied per unit area. The concentration of the spray liquor is chosen such that the particular amounts of active compound desired are applied in 1000 l of water/ha. After three weeks, the degree of damage to the plants is rated in % damage in comparison to the development of the untreated control. The figures denote: • 0%=no effect (like untreated control) • 100%=total destruction"}, "[3]": {"system": "Avena fatua", "assay": "Post-emergence test, Avena fatua", "settings": "post-emergence/greenhouse; 250 g of ai/ha; after three weeks", "description": "as §2, with “Test plants” for “Seeds”, “a height of 5-15 cm” for “the test plants”, “are” for “are sown in normal soil. After about 24 hours, the soil is”, “(=like” for “(like”"}, "[4]": {"system": "Sinapis", "assay": "Pre-emergence test, Sinapis", "settings": "pre-emergence/greenhouse; 250 g of ai/ha; after three weeks", "description": "as §2"}, "[5]": {"system": "Setaria", "assay": "Pre-emergence test, Setaria", "settings": "pre-emergence/greenhouse; 250 g of ai/ha; after three weeks", "description": "as §2"}, "[6]": {"system": "Avena fatua", "assay": "Pre-emergence test, Avena fatua", "settings": "pre-emergence/greenhouse; 250 g of ai/ha; after three weeks", "description": "as §2"}, "[7]": {"system": "Tetranychus urticae", "assay": "Tetranychus test (OP-resistant/dip treatment)", "settings": "100 ppm active compound, bean plants dipped, OP-resistant", "description": "[table] To produce a suitable preparation of active compound, 1 part by weight of active compound is mixed with the stated amounts of solvent and emulsifier, and the concentrate is diluted with emulsifier-containing water to the desired concentration. Bean plants (Phaseolus vulgaris) which are heavily infested by all stages of the greenhouse […] spider mite (Tetranychus urticae) are dipped into a preparation of active compound of the desired concentration. After the desired period of time, the activity in % is determined. 100% means that all spider mites have been killed; 0% means that none of the spider mites have been killed."}, "[8]": {"system": "Setaria", "assay": "Post-emergence test, Setaria", "settings": "post-emergence/greenhouse; 250 g of ai/ha; after three weeks", "description": "as §2, with “Test plants” for “Seeds”, “a height of 5-15 cm” for “the test plants”, “are” for “are sown in normal soil. After about 24 hours, the soil is”, “(=like” for “(like”"}, "[9]": {"system": "Alopecurus", "assay": "Post-emergence test, Alopecurus", "settings": "post-emergence/greenhouse; 250 g of ai/ha; after three weeks", "description": "as §2, with “Test plants” for “Seeds”, “a height of 5-15 cm” for “the test plants”, “are” for “are sown in normal soil. After about 24 hours, the soil is”, “(=like” for “(like”"}, "[10]": {"system": "Echinochloa", "assay": "Pre-emergence test, Echinochloa", "settings": "pre-emergence/greenhouse; 250 g of ai/ha; after three weeks", "description": "as §2"}, "[11]": {"system": "Amaranthus", "assay": "Post-emergence test, Amaranthus", "settings": "post-emergence/greenhouse; 250 g of ai/ha; after three weeks", "description": "as §2, with “Test plants” for “Seeds”, “a height of 5-15 cm” for “the test plants”, “are” for “are sown in normal soil. After about 24 hours, the soil is”, “(=like” for “(like”"}, "[12]": {"system": "Amaranthus", "assay": "Pre-emergence test, Amaranthus", "settings": "pre-emergence/greenhouse; 250 g of ai/ha; after three weeks", "description": "as §2"}, "[13]": {"system": "Sinapis", "assay": "Post-emergence test, Sinapis", "settings": "post-emergence/greenhouse; 250 g of ai/ha; after three weeks", "description": "as §2, with “Test plants” for “Seeds”, “a height of 5-15 cm” for “the test plants”, “are” for “are sown in normal soil. After about 24 hours, the soil is”, “(=like” for “(like”"}, "[14]": {"system": "Echinochloa", "assay": "Post-emergence test, Echinochloa", "settings": "post-emergence/greenhouse; 250 g of ai/ha; after three weeks", "description": "as §2, with “Test plants” for “Seeds”, “a height of 5-15 cm” for “the test plants”, “are” for “are sown in normal soil. After about 24 hours, the soil is”, “(=like” for “(like”"}, "[15]": {"system": "Aphis gossypii", "assay": "Aphis gossypii test (leaf dip, cotton)", "settings": "500 ppm active compound, cotton leaves dipped", "description": "as §1, with “Cotton” for “Cabbage”, “(Gossypium hirsutum) which are heavily infested by the cotton aphids (Aphis gossypii)” for “(Brassica oleracea)”, “concentration.” for “concentration and are populated with caterpillars of the army worm (Spodoptera frugiperda) while leaves are still moist.”, “aphids” for “caterpillars”"}, "[16]": {"system": "Myzus persicae", "assay": "Test for persistency: Myzus persicae (root-systemic action)", "settings": "4 ppm in soil, broad beans", "description": "(§3) [table] To produce a suitable preparation of active compound, 1 part by weight of active compound is mixed with the stated amounts of solvent and emulsifier, and the concentrate is diluted with water to the desired concentration. The preparation of active compound is mixed intimately with the soil. The stated concentration refers to the amount of active compound per volume unit of soil (mg/l). The treated soil is filled into pots, and into these pots is planted pre-germinated broad beans. In this way, the active compound can be taken up from the soil into the roots of the plants and be transported into the leaves. After the stated number of days, peach aphids (Myzus persicae) are, in infection chambers, placed on the leaves. After the desired period of time, the kill in % is determined. 100% means that all aphids have been killed; 0% means that none of the aphids have been killed."}, "[17]": {"system": "Aphis gossypii", "assay": "Test for persistency: Aphis gossypii (root-systemic action)", "settings": "4 ppm in soil, cotton", "description": "as §3, with “cotton at the cotyledon stage.” for “pre-germinated broad beans.”, “cotton” for “peach”, “(Aphis gossypii)” for “(Myzus persicae)”"}, "[18]": {"system": "Plutella xylostella", "assay": "Plutella test", "settings": "500 ppm active compound, cabbage leaves dipped", "description": "as §1, with “diamondback moth (Plutella xylostella)” for “army worm (Spodoptera frugiperda)”"}, "[19]": {"system": "Phaedon cochleariae", "assay": "Phaedon larvae test", "settings": "500 ppm active compound, cabbage leaves dipped", "description": "as §1, with “with larvae” for “with caterpillars”, “the mustard beetle (Phaedon cochleariae)” for “the army worm (Spodoptera frugiperda)”, “all beetle larvae” for “all caterpillars”, “the beetle larvae” for “the caterpillars”"}}}
{"smiles": "COC1CCC2(CC1)NC(=O)C(Cl)(c1ccc(C)cc1Cl)C2=O", "note": "(centres unmarked) [Ex. I-1-a-3]", "values": [{"measurement": "Kill rate in % after 7d", "setting": "[1]", "value": 100, "unit": "%"}]}
{"smiles": "COC1CCC2(CC1)NC(=O)C(Cl)(c1c(C)cc(C)cc1Cl)C2=O", "note": "(centres unmarked) [Ex. I-1-a-8]", "values": [{"measurement": "Kill rate in % after 7d", "setting": "[1]", "value": 100, "unit": "%"}, {"measurement": "% damage, Alopecurus", "setting": "[2]", "value": 100, "unit": "%"}, {"measurement": "% damage, Avena fatua", "setting": "[3]", "value": 90, "unit": "%"}, {"measurement": "% damage, Sinapis", "setting": "[4]", "value": 100, "unit": "%"}, {"measurement": "% damage, Setaria", "setting": "[5]", "value": 100, "unit": "%"}, {"measurement": "% damage, Avena fatua", "setting": "[6]", "value": 100, "unit": "%"}, {"measurement": "Kill rate in % after 7d", "setting": "[7]", "value": 100, "unit": "%"}, {"measurement": "% damage, Setaria", "setting": "[8]", "value": 100, "unit": "%"}, {"measurement": "% damage, Alopecurus", "setting": "[9]", "value": 100, "unit": "%"}, {"measurement": "% damage, Echinochloa", "setting": "[10]", "value": 100, "unit": "%"}, {"measurement": "% damage, Amaranthus", "setting": "[11]", "value": 90, "unit": "%"}, {"measurement": "% damage, Amaranthus", "setting": "[12]", "value": 100, "unit": "%"}, {"measurement": "% damage, Sinapis", "setting": "[13]", "value": 80, "unit": "%"}, {"measurement": "% damage, Echinochloa", "setting": "[14]", "value": 100, "unit": "%"}]}
{"smiles": "Cc1cc(Br)cc(C)c1C1(Cl)C(=O)NC2(CCOCC2)C1=O", "note": "(centres unmarked) [Ex. I-1-c-3]", "values": [{"measurement": "Kill rate in % after 6d", "setting": "[15]", "value": 90, "unit": "%"}, {"measurement": "Kill rate in % after 7d", "setting": "[16]; infection after 7 d", "value": 99, "unit": "%"}, {"measurement": "Kill rate in % after 7d", "setting": "[16]; infection after 21 d", "value": 100, "unit": "%"}, {"measurement": "Kill rate in % after 7d", "setting": "[16]; infection after 35 d", "value": 99, "unit": "%"}, {"measurement": "Kill rate in % after 7d", "setting": "[17]; infection after 7 d", "value": 100, "unit": "%"}, {"measurement": "Kill rate in % after 7d", "setting": "[17]; infection after 21 d", "value": "98^ %"}, {"measurement": "Kill rate in % after 7d", "setting": "[17]; infection after 35 d", "value": "98^ %"}, {"measurement": "Kill rate in % after 7d", "setting": "[18]", "value": 100, "unit": "%"}]}
{"smiles": "COC1CCC2(CC1)NC(=O)C(Cl)(c1cc(C)ccc1Br)C2=O", "note": "(centres unmarked) [Ex. I-1-a-28]", "values": [{"measurement": "Kill rate in % after 6d", "setting": "[15]", "value": 90, "unit": "%"}, {"measurement": "Kill rate in % after 7d", "setting": "[19]", "value": 100, "unit": "%"}, {"measurement": "Kill rate in % after 7d", "setting": "[18]", "value": 100, "unit": "%"}]}
